Test results: ChEMBL document CHEMBL3507680, “University of Dundee, Gates Library screen for HepG2 cell viability”

Assay: Human HepG2 cell viability assay in 384 well format
Type: toxicity, cell-based
Design: dose 125 nL, time 70.5 hour; cytotoxicity at 70.5 h: concentration not given beside the values
Conditions: HepG2 cells, read-out: Inhibition

SMILES	cytotoxicity at 70.5 h
COc1cc(C2C3=C(COC3=O)Nc3[nH]nc(C)c32)cc(Br)c1O (centres undefined)	2.06%
COCC1CN(Cc2cccc(C#N)c2)Cc2nccn2C1 (centres undefined)	1.24%
N#Cc1nccnc1NCCC1CCN(CC(F)(F)F)CC1	21.7%
O=C1CSC(c2cccs2)c2cnn(C3CCCC3)c2N1 (centres undefined)	-5.69%
COCC(=O)N1CCC2(CCc3ccc(F)cc32)CC1	-2.02%
CC(=O)N1CCCn2nc(CNC(=O)N3CCCCC3)cc2C1	19.2%
Cc1nc(CN2CCCN(C(=O)c3cnccn3)CC2)cs1	-3.13%
Cc1c(CN2CCC(C(=O)O)(n3ccnc3)CC2)oc2ccccc12	-7.33%
Cc1nccc(C2CCCCN2Cc2ccc(F)cc2)n1 (centres undefined)	10.1%
OCC1(NCc2cnc(-c3ccccn3)s2)CCOCC1	28%
O=C(c1cnc(-c2cccnc2)nc1)N1CCSCC1	21.6%
NC(=O)c1cccc(OCCC(=O)NC2CCc3c(F)cccc32)c1 (centres undefined)	-9.97%
CC(C(=O)Nc1nccs1)N(C)Cc1cccc(C#N)c1 (centres undefined)	-11.6%
Cc1cc(NCC(C)C)ccc1C(=O)N(C)C	13.4%
O=C(N[C@H]1CC[C@@]2(CCC(=O)N2CC2CC2)CC1)c1cnccn1	-11%
CN(CC(=O)N1CC(C)(C)[C@](O)(C2CC2)C1)Cc1cccnc1	-3.42%
Cc1nc(CN2C(=O)C[C@@H]3[C@@H]2CCN3C(=O)C2CCOCC2)cs1	-8.18%
c1cnn(-c2ccc(CCNC3CCN(C4CC4)C3)cc2)c1 (centres undefined)	0.821%
O=C(Nc1ccc(-n2cccn2)cc1)N1C[C@H](O)[C@@H](N2CCOCC2)C1	-13.4%
Cc1cnn(C(C)C(=O)NCC2CCN(c3cnn(C)c(=O)c3)CC2)c1 (centres undefined)	-5.13%
CCc1csc(C2CCCN(C(=O)CCn3cc(C)cn3)C2)n1 (centres undefined)	17.5%
O=C(CCn1c(C(F)F)cc2cccnc21)NC1CCCC1	-6.41%
Cc1nccn1C1CCCN(C(=O)c2cccc(S(C)(=O)=O)c2)C1 (centres undefined)	-11.1%

SMILES	cytotoxicity at 70.5 h
COCCn1ccnc1C1CCCN(C(=O)c2cccnc2SC)C1 (centres undefined)	13%
CC(NCCCN1CCCC1=O)c1ccc(F)cc1N(C)C (centres undefined)	-4.56%
CC(C)NC(=O)[C@H]1C[C@@H]2[C@@H](C1)OCCN2CC1CC1	-3.31%
COCCN(C)Cc1cn(C)nc1-c1ccc2c(c1)OCCO2	-7.93%
Cc1nc(C(=O)N2CCCC(n3cncn3)C2)cs1 (centres undefined)	-3.83%
Cc1c(C(C)NC2CCOCC2)cnn1-c1ccc(F)cc1F (centres undefined)	9.85%
COCCn1ccc(NCc2sccc2C)n1	-3.13%
Cc1ncsc1C(=O)NCc1ccc(-c2n[nH]cc2C(=O)N(C)C)cc1	-1.47%
Cc1cnn(C2CCCN(C(=O)c3ccc(Cn4ccnc4)cc3)C2)c1 (centres undefined)	17.4%
Cc1cccc(CN2C[C@@H]3CN(C(=O)c4ccsc4)C[C@@H]3C2=O)c1	-5.57%
Cc1noc(CN2CCN(c3cncc(Cl)n3)CC2)n1	-4.58%
FC(F)(F)COCCN1CCN(c2ccc3nncn3n2)CC1	1.24%
COc1cc(Nc2c(C#N)c(=O)n(C)c(=O)n2C)cc(OC)c1	-6.16%
Cc1ccc(C2CCCN(S(C)(=O)=O)C2)nc1 (centres undefined)	-2.08%
Cc1ccccc1C(=O)N1CC[C@H](O)[C@@H](N2CCOCC2)CC1	-4.48%
Cc1ccc(-c2nc(CN3CCOC(Cn4cccn4)C3)cs2)o1 (centres undefined)	-13.3%
COc1cccc(C)c1C(=O)N1C[C@@H](CN(C)C)[C@@H](CO)C1	-4.7%
CC1CCN(C(=O)C(C)N2CCc3[nH]nc(C(F)(F)F)c3C2)CC1 (centres undefined)	-8.79%
CC(C)c1nc(CN(C)C2CCN(Cc3nc(C4CC4)no3)C2)no1 (centres undefined)	12%
Cc1cc(C(=O)Nc2cccn(Cc3ccccc3)c2=O)no1	1.5%
Cn1cnnc1C1CCN(C(=O)CCCOc2ccccc2)CC1	-0.661%
CN(C)CCCNC(=O)C(c1cccc(F)c1)N(C)C (centres undefined)	-2.43%
O=C(NCCc1ccncc1)c1cccnc1OCC(F)(F)F	-1.85%

SMILES	cytotoxicity at 70.5 h
Cc1cc(C)cc(CN2C[C@@H]3OCCN(S(=O)(=O)N(C)C)[C@@H]3C2)c1	-5.73%
CC(C)(C)N1CC(C(=O)N2CCN(CCc3ccccc3)CC2)CC1=O (centres undefined)	-12.8%
COc1ccc2c(c1)OC1(CCN(Cc3ccc(F)cc3)CC1)CC2=O	1.23%
Cc1noc(C)c1CCC(=O)NC(C)c1nnc2n1CCCCC2 (centres undefined)	-4.24%
COc1ccccc1CC1CCCN(C(=O)c2cn[nH]c2C)C1 (centres undefined)	-10.8%
N#CC1=C(N)Nn2c(nnc2-c2ccccc2Br)S1	-19%
CC(C(=O)N(C)C)N1CCCN(C(=O)Oc2ccccc2)CC1 (centres undefined)	-9.71%
Cc1cnn(CCNCc2ccc(OCc3noc(C)n3)cc2)c1	-6.14%
CC(C)c1nnc(NC(=O)CCC(=O)NCC2CCCO2)s1 (centres undefined)	-12.5%
CC(C)n1c(C2CCCN(Cc3ccnn3C)C2)nc2ccccc21 (centres undefined)	-9.99%
Cc1cnn(CC2CCN(CC(O)c3ccc(F)cc3)CC2)c1 (centres undefined)	-0.648%
CC1CCC(O)(CSc2nnnn2C)CC1 (centres undefined)	-3.28%
CC(=O)N(C)c1nc(CN2CCN(c3nccs3)CC2)cs1	-5.68%
Cn1cnnc1C1CCCN(C(=O)c2cc(Cl)cc(Cl)c2)C1 (centres undefined)	-8.15%
CC(C)Oc1ncnc2c1CCN(C(=O)c1cccn1C)CC2	7.42%
CCCn1cc(NC(=O)c2ccncc2)ccc1=O	-8.23%
COCCCNc1nc(CNC(C)=O)cc(-c2ccco2)n1	-8.32%
Cc1nonc1CN(C)Cc1cnn(-c2ccc(Cl)cc2)c1	-3.48%
Cc1nnsc1C(=O)NCc1cccnc1N(C)C	-3.02%
OC1(Cn2ccc3ncccc32)CCN(Cc2cc(F)cc(F)c2)CC1	5.69%
Cc1n[nH]cc1CNC1(c2ccc(F)cc2)CCCC1	-7.33%
Cc1cccc(C(=O)N2CC(C(=O)NCC3CC3)C3(CCOCC3)C2)n1 (centres undefined)	-2.96%
O=C1CC2(CCN(CCCF)CC2)CN1Cc1cc(F)cc(F)c1	8.23%

SMILES	cytotoxicity at 70.5 h
CCC(Sc1ncc(CO)n1C)c1ccccc1 (centres undefined)	-10%
CC(C)(C)OC(=O)N1CCC(NC2CCS(=O)(=O)C2)CC1 (centres undefined)	-8.07%
COC(=O)C(C)N(Cc1cc(=O)n(C)c(=O)n1C)C1CC1 (centres undefined)	4.91%
CCc1csc(C2CCCN(C(=O)COc3cc(C)on3)C2)n1 (centres undefined)	-8.8%
CC(C)c1ncc(CN2C[C@@H](CN3CCC(CO)CC3)[C@@H](CO)C2)cn1	-6.31%
COCC1CN(S(C)(=O)=O)Cc2ncn(CC3CC3)c21 (centres undefined)	-6.83%
CNC(=O)CN1CCOC(c2ccccc2C(F)(F)F)C1 (centres undefined)	7.85%
CN(Cc1cscn1)C(=O)C(c1ccccc1)N1CCSCC1 (centres undefined)	21.5%
CCS(=O)(=O)N1CCc2ccc(NC(=O)Nc3cccc(C#N)c3)cc21	17.6%
CC(=O)N1CCCCC1c1nc(N)ncc1-c1ccccc1 (centres undefined)	-24.9%
CC(=O)N1CCCC(c2nnc3n2CCN(C(=O)C2CCCCC2)C3)C1 (centres undefined)	-8.2%
Cc1noc(C)c1CN1CCn2nc(CCC(=O)N3CCCC3)cc2C1	-2.3%
Cc1nnc(C2Cc3ccccc3CN2Cc2nc(C3CC3)no2)o1 (centres undefined)	-5.34%
O=C(C(O)c1ccccc1Cl)N1CCCN(Cc2cccnc2)CC1 (centres undefined)	-4.87%
CCc1cc(NCC(O)CN2CCCCC2)n2ncnc2n1 (centres undefined)	1.39%
N#Cc1cc(F)ccc1NCc1ccc(Cn2cncn2)cc1	-3.41%
c1cc2c(cc1CN1CCN(Cc3noc(C4CC4)n3)CC1)OCO2	-2.86%
Cc1cc(C2CCCN(C(=O)c3cnn(C)c3)C2)ccn1 (centres undefined)	-8.77%
Cc1cc(Cc2ccc(F)cc2)cc(C2CCCNC2)n1 (centres undefined)	16.9%
CC(C)c1nnc2n1CCN(C(=O)c1ccc3cc[nH]c3c1)C2	2.26%
COc1ccccc1C(=O)N(C)C1CCN(c2ccccn2)CC1	-0.00253%
O=C(CN1CCCC1Cn1cncn1)NCCOc1cccc(F)c1 (centres undefined)	-14.6%
COCc1noc(CNc2nc(C3CCCC3)nc3c2CCNCC3)n1	-10.6%

SMILES	cytotoxicity at 70.5 h
c1cnnc(N2CCCC2CNCc2nc(-c3ccoc3)no2)c1 (centres undefined)	10%
CCC(=O)NCC(CC)Oc1cccc(F)c1 (centres undefined)	-3.64%
Cn1ncc2c(=O)[nH]c(CN3CCC(Cc4ccccc4)CC3)nc21	34.8%
COCCNC(=O)c1ccnn1-c1ccc2ccccn12	-4.72%
Cc1cc(C)c(S(N)(=O)=O)cc1C(=O)NCC1Cc2ccccc2O1 (centres undefined)	-5.64%
Cc1ncsc1C(=O)N1CCCC(c2cc(C(F)F)n3ncnc3n2)C1 (centres undefined)	0.833%
O=S(=O)(NCc1ccccc1)Nc1cccc(Cn2cncn2)c1	-7.79%
COc1c(CNC2CCc3c(Cl)cccc32)c(C)nn1C (centres undefined)	-12.4%
O=C(c1ccc(Cl)cc1)N1CCC(N2CCCOC2=O)CC1	-6.91%
CCc1nnc(C2Cc3ccccc3CN2Cc2cc(C)no2)o1 (centres undefined)	-4.33%
COc1cccc(-c2ccnc(C3CCNCC3)c2)c1	7.37%
Cc1nc(N2CCOCC2)ncc1-c1cc(O)nc(N2CCCC2)n1	-2.77%
COc1cccc(-c2cnc3n2CCC32CCN(S(C)(=O)=O)CC2)c1	-2.2%
O=c1[nH]c2nc(NC3CC3)ncc2c(=O)n1-c1ccc(F)cc1	0.679%
CC[C@H]1COCCN1C(=O)c1cnc(C(C)C)nc1C	16.6%
Cc1ccc(C(=O)N2CC[C@H]3[C@@H]2CCC(=O)N3c2ccccc2)cn1	-12.4%
CCN1CCC2(CC1)NC(=O)c1cc(Br)ccc1-n1nnnc12	-5.39%
Cc1cnn(CC2CN(Cc3nc(-c4ccoc4)no3)CCO2)c1 (centres undefined)	-18.2%
Cc1cccc(N2CCC3(CCCN(C(=O)c4cccnc4)C3)C2)n1 (centres undefined)	18.7%
O=C(NCc1ccccn1)[C@@]12CCO[C@@H]1CCN(C1CCCC1)C2	-1.56%
COc1ccc(F)cc1C(C)NC(=O)Nc1nnc(C)s1 (centres undefined)	-12.6%
CCCc1nc(C(C)(C)NC(=O)C2CC(=O)N(CC(C)C)C2)no1 (centres undefined)	-4.84%
